The IC50 is the concentration at which inhibition is half-maximal. Read a high IC50 as weaker potency in that assay.

This note sets out measurements from patent US11702422B2, “Imidazopyridazines as modulators of IL-17” (Janssen Pharmaceutica NV, priority 2020, dated 2023).

The target of assay [1] is IL-17A(FLAG-Tagged): IL-17RA(His-Tagged) (Homo sapiens, UniProt Q16552, K93Q). Nature of the assay: IL-17A(FLAG-Tagged): IL-17RA(His-Tagged) Binding Disruption Eu-HTRF Assay. The following applies: IL-17A/IL-17RA binding disruption, simple average if tested more than once. Put shortly:
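IC50 comes from a one-site competition fit of the HTRF 665/620 nm ratio. Compound dilutions (2-fold, 22 points) were held 1 h rt with FLAG-tagged IL-17A dimer, then His-tagged IL-17RA plus Eu-cryptate anti-FLAG and D2 anti-His antibodies were added for 2 h rt.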

For assay [2], the system named is IL-17A-induced G-CSF production in human normal keratinocyte (NHK). Nature of the assay: NHK Assay: IL-17A-induced G-CSF production in human normal keratinocytes. The format is cell-based. Conditions: 24 h, adult normal human keratinocytes, IL-17A 5 ng/mL, simple average if tested more than once. The method in brief: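 Titrated compound plus recombinant human IL-17A (pre-incubated 1 h, rt) were applied to adult human keratinocytes at 5 ng/mL cytokine, 0.2% DMSO. Cultures ran 24 h at 37° C, and supernatant G-CSF was measured by HTRF to derive IC50.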

Chain of UniProt Q16552 (Q16552 with tags, fused parts or gaps K93Q): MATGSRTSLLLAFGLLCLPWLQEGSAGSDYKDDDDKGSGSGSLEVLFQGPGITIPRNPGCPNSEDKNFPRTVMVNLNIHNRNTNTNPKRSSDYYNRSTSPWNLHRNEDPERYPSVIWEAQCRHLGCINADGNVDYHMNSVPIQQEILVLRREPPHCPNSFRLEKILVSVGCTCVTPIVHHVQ

`CC(C)C(NC(=O)CC1CC(F)(F)C1)c1cnn2cc([C@@H](NC(=O)c3nonc3C3CC3)C3CCC(F)(F)CC3)nc2c1` (single isomer, unassigned) [Example 512, 4-Cyclopropyl-N—((S)-(7-((S*)-1-(2-(3,3-difluorocyclobutyl)acetamido)-2-methylpropyl)imidazo[1,2-b]pyridazin-2-yl)(4,4-difluorocyclohexyl)methyl)-1,2,5-oxadiazole-3-carboxamide]: the IC50 in assay [1] worked out at 30 nM; in assay [2] (Homo sapiens, Keratinocyte), 35 nM.
Take `Cc1nonc1C(=O)N[C@H](c1cn2ncc(C(NC(=O)CC3CC(F)(F)C3)C(C)C)cc2n1)C1CCC(F)(F)CC1` (single isomer, unassigned) [Example 513, N—((S)-(7-((S*)-1-(2-(3,3-Difluorocyclobutyl)acetamido)-2-methylpropyl)imidazo[1,2-b]pyridazin-2-yl)(4,4-difluorocyclohexyl)methyl)-4-methyl-1,2,5-oxadiazole-3-carboxamide]: the IC50 was determined as 74 nM in assay [1] and 150 nM in assay [2] (Homo sapiens, Keratinocyte).
Take `Cc1nonc1C(=O)N[C@H](c1cn2ncc(C(NC(=O)CCC(F)(F)F)C(F)F)cc2n1)C1CCC(F)(F)CC1` (single isomer, unassigned) [Example 516, N—((S)-(7-((R*)-2,2-Difluoro-1-(4,4,4-trifluorobutanamido)ethyl)imidazo[1,2-b]pyridazin-2-yl)(4,4-difluorocyclohexyl)methyl)-4-methyl-1,2,5-oxadiazole-3-carboxamide]: the concentration for half-maximal inhibition (IC50) was 1900 nM in assay [1] and over 20000 nM in assay [2].
In the case of `O=C(CC1CC(F)(F)C1)NC(c1cnn2cc([C@@H](NC(=O)c3nonc3C3CC3)C3CCC(F)(F)CC3)nc2c1)C(F)F` (single isomer, unassigned) [Example 517, 4-Cyclopropyl-N—((S)-(7-((S*)-1-(2-(3,3-difluorocyclobutyl)acetamido)-2,2-difluoroethyl)imidazo[1,2-b]pyridazin-2-yl)(4,4-difluorocyclohexyl)methyl)-1,2,5-oxadiazole-3-carboxamide], the results for the IC50 in assay [1] and in assay [2] were 46 nM and 45 nM, respectively.
For `CC(C)n1nccc1C(=O)N[C@H](c1cn2ncc(C(NC(=O)CC3CC(F)(F)C3)C(F)F)cc2n1)C1CCC(F)(F)CC1` (single isomer, unassigned) [Example 519, N—((S)-(7-((S*)-1-(2-(3,3-Difluorocyclobutyl)acetamido)-2,2-difluoroethyl)imidazo[1,2-b]pyridazin-2-yl)(4,4-difluorocyclohexyl)methyl)-1-isopropyl-1H-pyrazole-5-carboxamide] the same measures were 190 nM and 53 nM.
As for `CCC(NC(=O)CC1CC(F)(F)C1)c1cnn2cc([C@@H](NC(=O)c3ccnn3C(C)C)C3CCC(F)(F)CC3)nc2c1` (single isomer, unassigned) [Example 520, N—((S)-(7-((S*)-1-(2-(3,3-Difluorocyclobutyl)acetamido)propyl)imidazo[1,2-b]pyridazin-2-yl)(4,4-difluorocyclohexyl)methyl)-1-isopropyl-1H-pyrazole-5-carboxamide], the IC50 in assay [1] worked out at 660 nM; in assay [2] (Homo sapiens, Keratinocyte), 5000 nM.
Turning to `[2H]C([2H])([2H])C([2H])([2H])n1nccc1C(=O)N[C@H](c1cn2ncc(C(COC)NC(=O)CC3CC(F)(F)C3)cc2n1)C1CCC(F)(F)CC1` (single isomer, unassigned) [Example 522, N—((S)-(7-((S*)-1-(2-(3,3-Difluorocyclobutyl)acetamido)-2-methoxyethyl)imidazo[1,2-b]pyridazin-2-yl)(4,4-difluorocyclohexyl)methyl)-1-(ethyl-d5)-1H-pyrazole-5-carboxamide], the IC50 in assay [1] stood at 2200 nM; in assay [2], 3600 nM.
For `[2H]C([2H])([2H])C([2H])([2H])n1nccc1C(=O)N[C@H](c1cn2ncc(C(COC)NC(=O)CC3CC(F)(F)C3)cc2n1)C1CCC(F)(F)CC1` (single isomer, unassigned) [Example 523, N—((S)-(7-((R*)-1-(2-(3,3-Difluorocyclobutyl)acetamido)-2-methoxyethyl)imidazo[1,2-b]pyridazin-2-yl)(4,4-difluorocyclohexyl)methyl)-1-(ethyl-d5)-1H-pyrazole-5-carboxamide] the same measures were 270 nM and 110 nM.
Consider `COCC(NC(=O)CC1CC(F)(F)C1)c1cnn2cc([C@@H](NC(=O)c3nonc3C3CC3)C3CCC(F)(F)CC3)nc2c1` (single isomer, unassigned) [Example 524, 4-Cyclopropyl-N—((S)-(7-((S*)-1-(2-(3,3-difluorocyclobutyl)acetamido)-2-methoxyethyl)imidazo[1,2-b]pyridazin-2-yl)(4,4-difluorocyclohexyl)methyl)-1,2,5-oxadiazole-3-carboxamide], for which the 50% inhibitory concentration (IC50) in assay [1] is 380 nM; in assay [2] it was 3700 nM.
In the same order, the values of `COCC(NC(=O)CC1CC(F)(F)C1)c1cnn2cc([C@@H](NC(=O)c3nonc3C3CC3)C3CCC(F)(F)CC3)nc2c1` (single isomer, unassigned) [Example 525, 4-Cyclopropyl-N—((S)-(7-((R*)-1-(2-(3,3-difluorocyclobutyl)acetamido)-2-methoxyethyl)imidazo[1,2-b]pyridazin-2-yl)(4,4-difluorocyclohexyl)methyl)-1,2,5-oxadiazole-3-carboxamide] are 59 nM and 42 nM.
Take `CCOCC(NC(=O)CC1CC(F)(F)C1)c1cnn2cc([C@@H](NC(=O)c3nonc3C3CC3)C3CCC(F)(F)CC3)nc2c1` (single isomer, unassigned) [Example 526, 4-Cyclopropyl-N—((S)-(7-((S*)-1-(2-(3,3-difluorocyclobutyl)acetamido)-2-ethoxyethyl)imidazo[1,2-b]pyridazin-2-yl)(4,4-difluorocyclohexyl)methyl)-1,2,5-oxadiazole-3-carboxamide]: the IC50 in assay [1] amounted to 320 nM; in assay [2] it was 1200 nM.
On to `CCOCC(NC(=O)CC1CC(F)(F)C1)c1cnn2cc([C@@H](NC(=O)c3nonc3C3CC3)C3CCC(F)(F)CC3)nc2c1` (single isomer, unassigned) [Example 527, 4-Cyclopropyl-N—((S)-(7-((R*)-1-(2-(3,3-difluorocyclobutyl)acetamido)-2-ethoxyethyl)imidazo[1,2-b]pyridazin-2-yl)(4,4-difluorocyclohexyl)methyl)-1,2,5-oxadiazole-3-carboxamide], for which the IC50 in assay [1] is 57 nM; in assay [2], 110 nM.
For `CCOCC(NC(=O)CC1CC(F)(F)C1)c1cnn2cc([C@@H](NC(=O)c3ccnn3C(C)C)C3CCC(F)(F)CC3)nc2c1` (single isomer, unassigned) [Example 528, N—((S)-(7-((R*)-1-(2-(3,3-Difluorocyclobutyl)acetamido)-2-ethoxyethyl)imidazo[1,2-b]pyridazin-2-yl)(4,4-difluorocyclohexyl)methyl)-1-isopropyl-1H-pyrazole-5-carboxamide] the same measures were 900 nM and 2400 nM.
For `CCOCC(NC(=O)CC1CC(F)(F)C1)c1cnn2cc([C@@H](NC(=O)c3ccnn3C(C)C)C3CCC(F)(F)CC3)nc2c1` (single isomer, unassigned) [Example 529, N—((S)-(7-((S*)-1-(2-(3,3-Difluorocyclobutyl)acetamido)-2-ethoxyethyl)imidazo[1,2-b]pyridazin-2-yl)(4,4-difluorocyclohexyl)methyl)-1-isopropyl-1H-pyrazole-5-carboxamide] the same measures were 340 nM and 120 nM.
